The text below walks through data of patent US20250135049A1, “Methods for Biological Material Labeling and Medical Imaging” (Mayo Foundation for Medical Education and Research, priority 2021, published 2025).

For data set [1], the system named is human decidual stromal cells (hDSCs), bone marrow-derived macrophages (rMac) and human peripheral blood mononuclear cells (hPBMCs). Conditions: Ref. 72; cited from earlier work.
The nature of data set [2]: PET imaging and ex vivo biodistribution studies. To be noted: for SUV Average ± SD: day 7 post-injection, free [^89Zr]ZrCl4, tail vein, n = 3. It counts as in vivo, athymic nude mice. As for the experimental part: 8-10 weeks old Athymic nude mice (male and female, 1:1) were obtained from Charles Rivers Laboratories or Taconic Biosciences, Inc.
After radiolabeling, the radiolabeled WBCs-0.1-0.6×10^6 (0.03-0.11 MBq); and SCs-0.1-1×10^6 (0.1-0.15 MBq) were injected in a group (n=3) of athymic nude mice, via tail vein injection. PET images were acquired at 4 hours, 2 days, 4 days and 7 days post-injection (p.i.) using microPET scanner. The free [^89Zr] ZrCl4 with radioactivity (0.15-0.19 MBq) was also injected intravenously via tail vein injection. The micro PET images were analyzed and scaled to SUV by image analysis software. The animals were euthanized at 7 days p.i., and organs/tissues were collected to measure standardized uptake value (SUV) in major organs. Animals were euthanized via cardiectomy under anesthesia using isoflurane as approved by the Institutional Animal Care and Use Committee (IACUC) of the Mayo Clinic Rochester MN, USA.

The nature of data set [3]: Stability of HPLC-purified [^89Zr]Zr-DBN with and without ascorbic acid (HPLC). Type of data set: physicochemical. To be noted: for stability of [^89Zr]Zr-DBN: stored at -20° C. As for the experimental part:
The purified and concentrated [^89Zr] Zr-DBN was stored at −20° C. and stability was tested at 0 hours, 24 hours, and 72 hours post HPLC purification and concentration in comparison with unpurified [^89Zr] Zr-DBN which was also stored at −20° C. To test the stability, the frozen [^89Zr] Zr-DBN was allowed to come to room temperature and reconstituted with ˜100 μL DMSO. The reconstituted [^89Zr] Zr-DBN (˜ 3.7 MBq) was diluted with ˜900 μL neutralized deionized water (pH 7.0) and pH was further adjusted to pH 7.0 using 1M Na2CO3. The stability of reconstituted and neutralized [^89Zr] Zr-DBN was tested using the same HPLC method that was used for [^89Zr] Zr-DBN purification.
The HPLC purified [^89Zr] Zr-DBN (˜7.2 mL) was divided into two equal parts of ˜3.6 mL each. In one-part, 25 μL of 200 mg/mL ascorbic acid (Sigma Aldrich, St. Louis, MO, USA) was added. Both ascorbic acid treated, and untreated fractions were concentrated at 0.42 torr and room temperature. […] Zr-DBN purification.

Regarding `[89Zr+4].[O-]c1cccc2cccnc12.[O-]c1cccc2cccnc12.[O-]c1cccc2cccnc12.[O-]c1cccc2cccnc12` [[^89Zr] Zr-oxine], in data set [1], the “apparent efflux of ^89Zr from the labeled cells” value is given as 29-38%.

For `[Cl][89Zr]([Cl])([Cl])[Cl]` [[^89Zr]ZrCl4, [^89Zr] ZrCl4], the “SUV Average ± SD” value in data set [2] (Bladder) is recorded as 0.32 ± 0.09; in data set [2] (Blood), 0.12 ± 0.01; in data set [2] (Bone) it was 9.89 ± 0.4; in data set [2] (Brain), 0.02 ± 0.02; in data set [2] (Heart), 0.26 ± 0.03; in data set [2] (Intestine) it was 0.09 ± 0.01. In addition, the “SUV Average ± SD” value is 0.49 ± 0.07 in data set [2] (Kidney); 0.61 ± 0.07 in data set [2] (Liver); 0.36 ± 0.06 in data set [2] (Lung); 0.14 ± 0.05 in data set [2] (Muscle); 0.29 ± 0.02 in data set [2] (Pancreas); 0.42 ± 0.14 in data set [2] (Skin). The “SUV Average ± SD” value in data set [2] (Spleen) is recorded as 0.39 ± 0.09; in data set [2] (Urine), 0.08 ± 0.03. For the same compound, in data set [2] (intravenous injection, 4 hours, 2 days, 4 days, 7 days), the “distribution of radioactivity on micro PET imaging” value was “high accumulation of free ^89Zr in the bones”.

With “[^89Zr] zirconium-p-isothiocyanatobenzyl-desferrioxamine [[^89Zr] Zr-DBN]”, the “stability of [^89Zr]Zr-DBN” value in data set [3] (72 hours post HPLC purification, without ascorbic acid) is 66%; in data set [3] (72 hours, with addition of ascorbic acid (25 μL of 200 mg/mL)), more than 82%. Also, the “enhancement of the 27.1 minutes HPLC peak for [^89Zr]Zr-DBN by ascorbic acid” value in data set [3] (immediately after concentration, ascorbic acid added before the concentration step) is reported as approximately 12%.
